Data: US20230201245A1, “COMPOSITIONS AND METHODS FOR TREATING VIRUS INFECTION” (CZ BIOHUB SF, LLC, priority 2020, published 2023)
Entries after “also recorded” stand apart in the source; their conditions may differ. Like-named read-outs stand apart in the source and are kept apart here.

Columns and labels:
[1] = test system: DENV; assay type: cell-based, DENV-2 strain 16681
[2] = test system: ZIKV; assay: Quantification of (+)vRNA and viral particles by qPCR and plaque assays, ZIKV-infected cells; assay type: cell-based; details: added at 24 h, analyzed at 36 hpi
[3] = test system: ZIKV replication complexes; assay: In vitro replication assay with crude replication complexes and clickable uridine analog (5EU); assay type: biochemical; details: crude replication complexes from ZIKV-infected cells
[4] = test system: ZIKV RNA translation initiation; assay: Sucrose gradient polysome fractionation with qPCR of GAPDH mRNA and ZIKV plus-strand RNA; assay type: cell-based; details: then 30 nM RocA for 30 min
[5] = test system: ZIKV; assay type: cell-based, ZIKV PRVABC59
[6] = test system: ZIKV NS5 and E; assay type: cell-based; details: added at 24 h, analyzed at 36 hpi; compared to CHX or Puro
[7] = test system: PV; assay type: cell-based, PV-1 Mahoney
[8] = test system: ebola, chikungunya, influenza and ZIKV; details: cited from earlier work

SMILES	virus production (DENV) [1]	accumulation of viral RNA or particles [2]	ZIKV replication in vitro (5EU labelling of newly synthesized RNA) [3]	virus production (ZIKV) [5]	also measured
COc1ccc([C@@]23Oc4cc(OC)cc(OC)c4[C@]2(O)[C@H](O)[C@H](C(=O)N(C)C)[C@H]3c2ccccc2)cc1 [RocA, Rocaglamide A]	strongly reduced; also recorded: blocks viral replication; also recorded: drastic dose-dependent decrease	reduced viral replication	reduced	strongly reduced; also recorded: blocks viral replication; also recorded: drastic dose-dependent decrease	distribution of ZIKV plus-strand RNA in gradient fractions ([4]; ZIKV-infected cells 24 h): shift of ZIKV RNA to lighter fractions; distribution of GAPDH mRNA in gradient fractions ([4]; mock or ZIKV-infected cells 24 h): did not affect; accumulation of NS5 or E [6]: mild inhibitory effect; virus production (PV) [7]: only minor effects; also recorded: not PV
C[C@@]1(O)[C@H](O)[C@@H](CO)O[C@H]1n1cnc2c(N)ncnc21 [2′CMA]	–	–	reduced	–	–
CC(/C=C/C(C)=C/[C@@H]1Cc2nc(cs2)[C@@H](C)C[C@@H](N)CC(=O)O[C@@H](C)C/C(C)=C/C=C\C(=O)O1)=C\CN(C)C [pateamine A]	–	–	–	–	antiviral activity [8]: antiviral activity
CCOC(=O)c1ccc(-c2ncc(C(=O)OCC)s2)nc1 [PythiDC, Diethyl-pythiDC]	inhibit virus replication	–	–	inhibit virus replication	–
COC(=O)[C@H]1[C@@H](O)[C@@]2(O)c3c(OC)cc(O[C@@H]4O[C@@H]([C@H](O)CO)CO[C@H]4OC)cc3O[C@@]2(c2ccc(OC)cc2)[C@@H]1c1ccccc1 [silvestrol]	–	–	–	–	antiviral activity ([8]; against ebola, chikungunya, influenza and ZIKV, literature references): antiviral activity
C[C@@H]1C[C@@H]([C@H](O)CC2CC(=O)NC(=O)C2)C(=O)[C@@H](C)C1 [CHX, cycloheximide]	–	reduced viral replication	–	–	–
